What was measured:
[1] = target: Non-receptor tyrosine-protein kinase TNK1 (Homo sapiens) (UniProt Q13470); conditions: Compound concentration 1000.0 nM
[2] = target: 5-hydroxytryptamine receptor 2A (Homo sapiens) (UniProt P28223); conditions: Compound concentration 10.0 uM
[3] = target: Serine/threonine-protein kinase N2 (Homo sapiens) (UniProt Q16513); conditions: Compound concentration 1000.0 nM
[4] = target: Receptor tyrosine-protein kinase erbB-4 (Homo sapiens) (UniProt Q15303); conditions: Compound concentration 1000.0 nM
[5] = target: Receptor-interacting serine/threonine-protein kinase 4 (Homo sapiens) (UniProt P57078); conditions: Compound concentration 1000.0 nM
[6] = target: Mitogen-activated protein kinase kinase kinase 14 (Homo sapiens) (UniProt Q99558); conditions: Compound concentration 1000.0 nM
[7] = target: Vascular endothelial growth factor receptor 1 (Homo sapiens) (UniProt P17948); conditions: Compound concentration 1000.0 nM
[8] = target: RAC-gamma serine/threonine-protein kinase (Homo sapiens) (UniProt Q9Y243); conditions: Compound concentration 1000.0 nM
[9] = target: Serine/threonine-protein kinase tousled-like 1 (Homo sapiens) (UniProt Q9UKI8); conditions: Compound concentration 1000.0 nM
Serine/threonine-protein kinase tousled-like 1 (Homo sapiens), sequence (Q9UKI8 whole entry): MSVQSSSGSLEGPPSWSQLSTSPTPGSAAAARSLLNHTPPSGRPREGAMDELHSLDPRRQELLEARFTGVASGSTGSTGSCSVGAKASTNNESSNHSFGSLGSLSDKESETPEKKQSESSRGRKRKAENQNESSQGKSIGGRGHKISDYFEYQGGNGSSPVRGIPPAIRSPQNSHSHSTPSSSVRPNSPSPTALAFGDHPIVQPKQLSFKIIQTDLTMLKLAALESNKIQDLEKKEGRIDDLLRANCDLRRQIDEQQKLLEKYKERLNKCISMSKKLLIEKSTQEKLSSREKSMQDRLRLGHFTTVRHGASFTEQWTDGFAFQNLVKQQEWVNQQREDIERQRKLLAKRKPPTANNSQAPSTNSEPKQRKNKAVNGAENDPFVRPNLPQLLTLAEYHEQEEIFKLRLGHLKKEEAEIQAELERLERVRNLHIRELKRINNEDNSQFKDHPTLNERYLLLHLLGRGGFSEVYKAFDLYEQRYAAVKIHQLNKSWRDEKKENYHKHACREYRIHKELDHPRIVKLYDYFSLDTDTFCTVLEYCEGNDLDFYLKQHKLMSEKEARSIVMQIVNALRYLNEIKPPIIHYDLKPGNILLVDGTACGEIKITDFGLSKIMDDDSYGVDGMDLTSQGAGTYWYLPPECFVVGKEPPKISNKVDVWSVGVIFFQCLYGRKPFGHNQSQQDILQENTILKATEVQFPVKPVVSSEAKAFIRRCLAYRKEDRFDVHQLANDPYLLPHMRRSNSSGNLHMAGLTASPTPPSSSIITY

[10] = target: Serine/threonine-protein kinase 32A (Homo sapiens) (UniProt Q8WU08); conditions: Compound concentration 1000.0 nM
[11] = target: Serine/threonine-protein kinase 17B (Homo sapiens) (UniProt O94768); conditions: Compound concentration 1000.0 nM
[12] = target: Cyclin-dependent kinase 8 (Homo sapiens) (UniProt P49336); conditions: Compound concentration 1000.0 nM
Cyclin-dependent kinase 8 (Homo sapiens), sequence (P49336 whole entry): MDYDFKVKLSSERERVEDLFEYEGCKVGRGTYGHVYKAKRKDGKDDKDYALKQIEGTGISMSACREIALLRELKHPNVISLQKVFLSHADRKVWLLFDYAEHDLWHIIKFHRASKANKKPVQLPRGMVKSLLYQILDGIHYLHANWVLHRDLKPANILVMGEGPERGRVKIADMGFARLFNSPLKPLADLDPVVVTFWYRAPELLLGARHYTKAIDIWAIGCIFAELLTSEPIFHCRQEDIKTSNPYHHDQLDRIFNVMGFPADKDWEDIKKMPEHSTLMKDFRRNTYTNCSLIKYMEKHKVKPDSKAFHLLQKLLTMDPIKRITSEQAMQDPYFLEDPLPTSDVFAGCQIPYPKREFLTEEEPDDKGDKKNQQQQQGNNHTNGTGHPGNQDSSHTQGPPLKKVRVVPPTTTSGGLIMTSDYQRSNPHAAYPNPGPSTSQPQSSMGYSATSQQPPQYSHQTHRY

[13] = tested on: Mast/stem cell growth factor receptor Kit (Homo sapiens), P10721 [V559D,V654A]; conditions: Compound concentration 1000.0 nM
[14] = target: Serine/threonine-protein kinase MARK2 (Homo sapiens) (UniProt Q7KZI7); conditions: Compound concentration 1000.0 nM
[15] = tested on: Tyrosine-protein kinase ABL1 (Homo sapiens), P00519 [F317L]; conditions: Compound concentration 1000.0 nM
[16] = tested on: Tyrosine-protein kinase ABL1 (Homo sapiens), P00519 [T315I]; conditions: Compound concentration 1000.0 nM
[17] = target: Tyrosine-protein kinase ITK/TSK (Homo sapiens) (UniProt Q08881); conditions: Compound concentration 1000.0 nM
[18] = target: Serine/threonine-protein kinase PAK 3 (Homo sapiens) (UniProt O75914); conditions: Compound concentration 1000.0 nM
[19] = target: Phosphatidylinositol 3-kinase C2 domain-containing subunit gamma (Homo sapiens) (UniProt O75747); conditions: Compound concentration 1000.0 nM
[20] = target: Tyrosine-protein kinase JAK2 (Homo sapiens) (UniProt O60674); conditions: Compound concentration 1000.0 nM
[21] = target: Mitogen-activated protein kinase kinase kinase 19 (Homo sapiens) (UniProt Q56UN5); conditions: Compound concentration 1000.0 nM
[22] = target: Serine/threonine-protein kinase 38-like (Homo sapiens) (UniProt Q9Y2H1); conditions: Compound concentration 1000.0 nM
Serine/threonine-protein kinase 38-like (Homo sapiens), sequence (Q9Y2H1 2-464 limits assumed): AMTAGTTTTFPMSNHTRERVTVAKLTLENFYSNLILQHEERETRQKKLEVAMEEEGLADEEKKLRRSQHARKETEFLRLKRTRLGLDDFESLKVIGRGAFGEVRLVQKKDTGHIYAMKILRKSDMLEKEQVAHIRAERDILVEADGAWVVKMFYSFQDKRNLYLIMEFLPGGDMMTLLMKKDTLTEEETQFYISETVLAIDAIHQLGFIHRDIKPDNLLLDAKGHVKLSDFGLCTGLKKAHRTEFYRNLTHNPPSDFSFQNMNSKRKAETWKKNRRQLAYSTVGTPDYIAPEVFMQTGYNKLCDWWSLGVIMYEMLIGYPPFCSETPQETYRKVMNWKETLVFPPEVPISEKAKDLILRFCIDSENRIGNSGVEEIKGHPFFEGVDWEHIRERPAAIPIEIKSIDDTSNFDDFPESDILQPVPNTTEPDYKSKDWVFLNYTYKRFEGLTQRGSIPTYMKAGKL

[23] = target: Dual specificity tyrosine-phosphorylation-regulated kinase 1A (Homo sapiens) (UniProt Q13627); conditions: Compound concentration 1000.0 nM
[24] = target: Mitogen-activated protein kinase 8 (Homo sapiens) (UniProt P45983); conditions: Compound concentration 1000.0 nM
Mitogen-activated protein kinase 8 (Homo sapiens), sequence (P45983 whole entry): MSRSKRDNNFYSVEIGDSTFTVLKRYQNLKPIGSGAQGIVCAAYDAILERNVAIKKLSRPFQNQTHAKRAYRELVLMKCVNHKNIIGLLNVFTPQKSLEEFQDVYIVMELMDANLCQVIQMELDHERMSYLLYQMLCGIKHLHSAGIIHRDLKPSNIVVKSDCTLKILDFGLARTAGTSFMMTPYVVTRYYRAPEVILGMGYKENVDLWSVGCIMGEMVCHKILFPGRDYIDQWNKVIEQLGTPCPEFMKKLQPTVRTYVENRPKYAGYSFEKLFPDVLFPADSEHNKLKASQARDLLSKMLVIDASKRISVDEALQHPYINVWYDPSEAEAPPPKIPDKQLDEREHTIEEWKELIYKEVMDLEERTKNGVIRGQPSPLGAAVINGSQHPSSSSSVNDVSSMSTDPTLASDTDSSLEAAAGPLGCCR

[25] = target: Proto-oncogene tyrosine-protein kinase ROS (Homo sapiens) (UniProt P08922); conditions: Compound concentration 1000.0 nM
[26] = target: Serine/threonine-protein kinase BRSK2 (Homo sapiens) (UniProt Q8IWQ3); conditions: Compound concentration 1000.0 nM
[27] = target: Serine/threonine-protein kinase Nek11 (Homo sapiens) (UniProt Q8NG66); conditions: Compound concentration 1000.0 nM
[28] = target: Serine/threonine-protein kinase 16 (Homo sapiens) (UniProt O75716); conditions: Compound concentration 1000.0 nM
Serine/threonine-protein kinase 16 (Homo sapiens), sequence (O75716 whole entry): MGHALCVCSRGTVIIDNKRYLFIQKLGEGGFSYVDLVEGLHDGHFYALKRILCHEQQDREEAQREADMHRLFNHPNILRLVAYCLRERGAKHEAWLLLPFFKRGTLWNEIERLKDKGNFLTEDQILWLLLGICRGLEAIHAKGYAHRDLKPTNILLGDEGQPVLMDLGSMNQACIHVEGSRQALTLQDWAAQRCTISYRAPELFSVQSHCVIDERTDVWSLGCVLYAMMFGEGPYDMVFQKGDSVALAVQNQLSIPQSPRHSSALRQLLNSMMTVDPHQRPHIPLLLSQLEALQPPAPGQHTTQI

[29] = target: Delta-type opioid receptor (Homo sapiens) (UniProt P41143); conditions: Compound concentration 10.0 uM
[30] = target: MAP kinase-interacting serine/threonine-protein kinase 2 (Homo sapiens) (UniProt Q9HBH9); conditions: Compound concentration 1000.0 nM
[31] = target: Serine/threonine-protein kinase Nek3 (Homo sapiens) (UniProt P51956); conditions: Compound concentration 1000.0 nM
[32] = target: Mitogen-activated protein kinase 13 (Homo sapiens) (UniProt O15264); conditions: Compound concentration 1000.0 nM
[33] = target: Tyrosine-protein kinase HCK (Homo sapiens) (UniProt P08631); conditions: Compound concentration 1000.0 nM
[34] = target: Non-receptor tyrosine-protein kinase TYK2 (Homo sapiens) (UniProt P29597); conditions: Compound concentration 1000.0 nM
[35] = target: Serine/threonine-protein kinase ULK1 (Homo sapiens) (UniProt O75385); conditions: Compound concentration 1000.0 nM
[36] = tested on: Epidermal growth factor receptor (Homo sapiens), P00533 [UNDEFINED MUTATION]; conditions: Compound concentration 1000.0 nM
[37] = tested on: Phosphatidylinositol 4,5-bisphosphate 3-kinase catalytic subunit alpha isoform (Homo sapiens), P42336 [M1043I]; conditions: Compound concentration 1000.0 nM
[38] = target: Vascular endothelial growth factor receptor 2 (Homo sapiens) (UniProt P35968); conditions: Compound concentration 1000.0 nM
[39] = target: Angiopoietin-1 receptor (Homo sapiens) (UniProt Q02763); conditions: Compound concentration 1000.0 nM
[40] = target: Uncharacterized serine/threonine-protein kinase SBK3 (Homo sapiens) (UniProt P0C264); conditions: Compound concentration 1000.0 nM
[41] = tested on: Serine/threonine-protein kinase B-raf (Homo sapiens), P15056 [V600E]; conditions: Compound concentration 1000.0 nM
Serine/threonine-protein kinase B-raf (Homo sapiens), P15056 [V600E], sequence (P15056 whole entry V600E): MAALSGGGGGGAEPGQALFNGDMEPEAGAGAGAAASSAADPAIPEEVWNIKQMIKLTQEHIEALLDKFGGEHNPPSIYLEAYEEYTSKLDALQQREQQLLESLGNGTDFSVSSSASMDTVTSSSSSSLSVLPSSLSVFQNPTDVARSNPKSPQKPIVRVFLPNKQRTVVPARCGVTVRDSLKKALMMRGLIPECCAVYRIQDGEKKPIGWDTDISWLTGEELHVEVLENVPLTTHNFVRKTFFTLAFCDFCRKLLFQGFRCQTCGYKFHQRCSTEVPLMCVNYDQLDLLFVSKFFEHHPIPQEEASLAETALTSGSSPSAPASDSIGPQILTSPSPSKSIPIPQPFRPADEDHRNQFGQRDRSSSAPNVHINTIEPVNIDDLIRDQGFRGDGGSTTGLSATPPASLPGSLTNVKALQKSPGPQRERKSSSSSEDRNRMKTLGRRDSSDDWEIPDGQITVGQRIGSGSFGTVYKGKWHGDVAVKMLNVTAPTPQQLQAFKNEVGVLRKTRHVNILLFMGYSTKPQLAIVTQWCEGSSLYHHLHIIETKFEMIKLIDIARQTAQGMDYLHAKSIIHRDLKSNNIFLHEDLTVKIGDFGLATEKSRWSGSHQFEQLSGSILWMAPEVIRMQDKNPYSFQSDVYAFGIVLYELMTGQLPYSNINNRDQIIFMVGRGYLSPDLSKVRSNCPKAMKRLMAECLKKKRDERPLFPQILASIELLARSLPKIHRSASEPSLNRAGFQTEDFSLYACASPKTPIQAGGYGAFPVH

[42] = target: Tyrosine-protein kinase Yes (Homo sapiens) (UniProt P07947); conditions: Compound concentration 1000.0 nM
[43] = target: Serine/threonine-protein kinase LATS2 (Homo sapiens) (UniProt Q9NRM7); conditions: Compound concentration 1000.0 nM
[44] = target: Serine/threonine-protein kinase N1 (Homo sapiens) (UniProt Q16512); conditions: Compound concentration 1000.0 nM

Non-receptor tyrosine-protein kinase TNK1 (Homo sapiens), sequence (Q13470 whole entry): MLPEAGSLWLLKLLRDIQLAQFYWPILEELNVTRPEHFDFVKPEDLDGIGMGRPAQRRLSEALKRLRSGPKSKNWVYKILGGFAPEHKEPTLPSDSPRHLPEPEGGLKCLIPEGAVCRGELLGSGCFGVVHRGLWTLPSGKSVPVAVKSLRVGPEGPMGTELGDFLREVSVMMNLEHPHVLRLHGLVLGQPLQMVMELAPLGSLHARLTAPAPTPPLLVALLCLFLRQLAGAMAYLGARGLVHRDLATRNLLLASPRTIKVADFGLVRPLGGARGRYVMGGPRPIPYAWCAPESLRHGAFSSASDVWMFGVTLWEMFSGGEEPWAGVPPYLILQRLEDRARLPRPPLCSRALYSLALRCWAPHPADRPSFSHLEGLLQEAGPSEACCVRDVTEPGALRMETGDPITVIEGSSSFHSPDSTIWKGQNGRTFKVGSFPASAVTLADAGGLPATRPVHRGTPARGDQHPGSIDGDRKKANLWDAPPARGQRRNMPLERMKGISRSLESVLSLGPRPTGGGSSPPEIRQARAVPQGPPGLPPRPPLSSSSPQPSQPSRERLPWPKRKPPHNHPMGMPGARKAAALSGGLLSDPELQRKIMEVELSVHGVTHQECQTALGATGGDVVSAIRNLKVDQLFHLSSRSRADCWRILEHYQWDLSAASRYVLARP
Serine/threonine-protein kinase N2 (Homo sapiens), sequence (Q16513 whole entry, looked up): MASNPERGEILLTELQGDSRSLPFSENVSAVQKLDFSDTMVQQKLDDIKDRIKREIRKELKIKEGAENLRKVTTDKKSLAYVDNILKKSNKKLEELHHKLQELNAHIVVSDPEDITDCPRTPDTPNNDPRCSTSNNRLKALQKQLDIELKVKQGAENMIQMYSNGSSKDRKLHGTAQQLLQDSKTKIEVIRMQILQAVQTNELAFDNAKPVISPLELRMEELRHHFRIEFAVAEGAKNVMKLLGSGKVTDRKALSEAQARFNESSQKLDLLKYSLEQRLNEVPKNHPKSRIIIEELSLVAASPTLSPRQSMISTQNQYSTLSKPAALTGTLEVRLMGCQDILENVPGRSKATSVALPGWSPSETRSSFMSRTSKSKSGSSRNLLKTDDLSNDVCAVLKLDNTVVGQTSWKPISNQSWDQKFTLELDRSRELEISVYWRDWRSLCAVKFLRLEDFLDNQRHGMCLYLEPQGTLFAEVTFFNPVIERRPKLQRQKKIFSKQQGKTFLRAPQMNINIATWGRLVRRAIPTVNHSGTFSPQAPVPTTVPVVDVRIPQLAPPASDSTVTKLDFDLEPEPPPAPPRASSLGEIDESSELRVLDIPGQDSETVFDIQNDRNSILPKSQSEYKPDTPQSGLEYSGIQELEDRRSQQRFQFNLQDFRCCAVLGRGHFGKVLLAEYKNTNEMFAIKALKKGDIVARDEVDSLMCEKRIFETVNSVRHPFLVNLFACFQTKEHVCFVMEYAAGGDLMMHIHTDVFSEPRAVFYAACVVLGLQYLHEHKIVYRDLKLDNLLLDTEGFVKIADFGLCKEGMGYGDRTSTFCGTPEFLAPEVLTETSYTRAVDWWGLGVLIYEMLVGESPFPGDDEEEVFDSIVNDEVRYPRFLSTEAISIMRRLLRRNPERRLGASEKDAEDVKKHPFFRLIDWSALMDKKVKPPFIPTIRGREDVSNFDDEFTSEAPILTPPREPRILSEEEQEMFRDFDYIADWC

CCS(=O)(=O)c1cc2cc(C[C@](O)(CC(C)(C)c3ccc(F)cc3C(N)=O)C(F)(F)F)[nH]c2cn1
residual activity [1]: 98% | inhibition [2]: 12.6% | residual activity [3]: 100% | residual activity [4]: 100% | residual activity [5]: 93% | residual activity [6]: 88% | residual activity [7]: 81% | residual activity [8]: 100% | residual activity [9]: 75% | residual activity [10]: 84% | residual activity [11]: 74% | residual activity [12]: 100% | residual activity [13]: 79% | residual activity [14]: 78% | residual activity [15]: 100% | residual activity [16]: 100% | residual activity [17]: 100% | residual activity [18]: 100% | residual activity [19]: 100% | residual activity [20]: 53% | residual activity [21]: 93% | residual activity [22]: 45% | residual activity [23]: 100% | residual activity [24]: 100% | residual activity [25]: 100% | residual activity [26]: 100% | residual activity [27]: 93% | residual activity [28]: 100% | inhibition [29]: -2.58% | residual activity [30]: 100% | residual activity [31]: 100% | residual activity [32]: 100% | residual activity [33]: 100% | residual activity [34]: 100% | residual activity [35]: 100% | residual activity [36]: 89% | residual activity [37]: 88% | residual activity [38]: 83% | residual activity [39]: 90% | residual activity [40]: 100% | residual activity [41]: 100% | residual activity [42]: 100% | residual activity [43]: 40% | residual activity [44]: 100%

CCS(=O)(=O)c1cc2cc(C[C@@](O)(CC(C)(C)c3ccc(F)cc3C(N)=O)C(F)(F)F)[nH]c2cn1
residual activity [1]: 100% | inhibition [2]: 14.1% | residual activity [3]: 85% | residual activity [4]: 100% | residual activity [5]: 100% | residual activity [6]: 59% | residual activity [7]: 67% | residual activity [8]: 90% | residual activity [9]: 0% | residual activity [10]: 77% | residual activity [11]: 76% | residual activity [12]: 100% | residual activity [13]: 81% | residual activity [14]: 100% | residual activity [15]: 90% | residual activity [16]: 67% | residual activity [17]: 96% | residual activity [18]: 100% | residual activity [19]: 100% | residual activity [20]: 100% | residual activity [21]: 76% | residual activity [22]: 38% | residual activity [23]: 66% | residual activity [24]: 98% | residual activity [25]: 90% | residual activity [26]: 72% | residual activity [27]: 100% | residual activity [28]: 91% | inhibition [29]: -3.88% | residual activity [30]: 87% | residual activity [31]: 100% | residual activity [32]: 96% | residual activity [33]: 100% | residual activity [34]: 82% | residual activity [35]: 100% | residual activity [36]: 94% | residual activity [37]: 99% | residual activity [38]: 92% | residual activity [39]: 94% | residual activity [40]: 94% | residual activity [41]: 100% | residual activity [42]: 100% | residual activity [43]: 100% | residual activity [44]: 85%

Source: ChEMBL document CHEMBL4507277
